Clc1ccccc1C(c1ccccc1)(c1ccccc1)n1ccnc1
solubility (mole fraction)
Conditions	278.15 K	283.15 K	288.15 K	293.15 K	298.15 K	303.15 K	308.15 K	313.15 K	318.15 K	323.15 K
in 1,4-dioxane	–	–	0.0385	0.0441	0.05	0.0568	0.0643	0.0731	0.0813	0.091
in acetonitrile	0.00173	0.00212	0.00264	0.00316	0.00378	0.00453	0.00539	0.00636	0.00741	0.00886
in isopropanol	0.00782	0.00947	0.0114	0.0137	0.0164	0.0195	0.0228	0.0266	0.031	0.036
in n-propanol	0.0125	0.0151	0.0181	0.0215	0.0257	0.0301	0.0353	0.0413	0.0477	0.0554
in water	9.28e-09	1.22e-08	1.56e-08	1.98e-08	2.47e-08	3.11e-08	3.85e-08	4.78e-08	5.9e-08	7.07e-08
